# Assay results: article PMC10449633 (Nature Chemical Biology, 2023)
# Values joined by “and” are separate entries in the source; they are usually repeats but may differ in a detail not shown here. Identical values can stand only once. Like-named read-outs stand apart in the source and are kept apart here. Numbered stars: 1 amine (or outer) side, 2 acyl side, 3 side chain; on linkers, the order of the positions; unused ones are H or OH. Square brackets hold non-standard residues; d marks the D form. Peptide text beside a SMILES is read from it. ξ: configuration not given here. X1 = CN(C(Cc1cn(Cc2ccc(Br)cc2)c2ccccc12)C(=O)[*:2])[*:1]; ξAla(CF3) = NC(CC(F)(F)F)C(=O)O; X2 = N#CCCC(O[*:1])C(=O)[*:2]; NMeL = CN[CH](CC(C)C)C(=O)O; NMeA = CN[CH](C)C(=O)O
# Key:
# [1] = biological target: T1, Sec61 (Homo sapiens, UniProt P61619); test: signal peptide-GLuc (SP-GLuc) reporter panel, 89 constructs; format: cell-based; conditions: read-out: log10(IC50 8445) (converted)
# T1 construct: endogenous in cells
# T1 sequence (P61619 whole entry): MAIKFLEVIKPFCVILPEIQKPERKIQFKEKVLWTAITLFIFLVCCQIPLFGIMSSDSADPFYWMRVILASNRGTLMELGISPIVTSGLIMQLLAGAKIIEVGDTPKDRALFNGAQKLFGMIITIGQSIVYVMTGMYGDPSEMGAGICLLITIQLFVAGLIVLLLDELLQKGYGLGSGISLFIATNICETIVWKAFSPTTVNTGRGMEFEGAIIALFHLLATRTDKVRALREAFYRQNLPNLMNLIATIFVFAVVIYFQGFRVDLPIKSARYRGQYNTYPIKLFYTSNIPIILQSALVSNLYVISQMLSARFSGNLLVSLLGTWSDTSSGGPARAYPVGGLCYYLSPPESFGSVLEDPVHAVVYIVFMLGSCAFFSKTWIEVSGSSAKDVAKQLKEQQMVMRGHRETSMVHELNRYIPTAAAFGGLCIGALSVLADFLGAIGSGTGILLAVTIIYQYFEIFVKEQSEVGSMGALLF
# T1 sequence (P60059 whole entry, further chain): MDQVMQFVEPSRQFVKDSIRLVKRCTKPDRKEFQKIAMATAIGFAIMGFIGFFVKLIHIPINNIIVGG
# T1 sequence (P60468 whole entry, further chain): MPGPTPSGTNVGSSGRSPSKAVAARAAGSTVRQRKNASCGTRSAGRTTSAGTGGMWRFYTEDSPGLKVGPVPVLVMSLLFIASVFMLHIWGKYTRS
# Text: The heat map depicts IC50 values calculated from each SP-GLuc dose–response curve. d, Arthritis was induced in BALB/c mice with antibodies specific for type II collagen (mAb) on day 0 and endotoxin on day 3. On day 4, when the disease was present in all animals, mice were randomized and treated for 2 weeks with thrice weekly (QODx3) or weekly (QW) intravenous administration of vehicle or KZR-8445 or intraperitoneal administration of dexamethasone. Clinical scores (0–4 per paw; n = 10 per group) and body weights were followed until day 14. Data are presented as mean values ± s.d. mAb, monoclonal antibody. Source data
# To investigate the effects of KZR-8445 on secretory and membrane protein biogenesis and to establish Sec61α as the relevant target, we quantified the secretion of a doxycycline-inducible Gaussia luciferase (GLuc) reporter fused to the C-terminus of two full-length pro-inflammatory cytokines, interleukin-2 (IL-2) (which contains a cleavable signal peptide) and tumor necrosis factor-alpha (TNFα) (which contains an N-terminal transmembrane anchor). […] KZR-8445 is structurally related to CT8, which discriminates among Sec61 clients based largely on their N-terminal signal peptide. […] We also directly compared KZR-8445 to mycolactone A/B, a structurally distinct and relatively client-nonselective Sec61 inhibitor[8],[25], for their ability to discriminate between vascular cell adhesion molecule (VCAM) and preprolactin (pPL) signal peptides.
# [2] = biological target: T2, R66I Sec61α (Canis lupus familiaris, UniProt P38377, R66I); test: GLuc secretion reporter fused to full-length IL-2 or TNF, cells stably expressing R66I Sec61α; format: cell-based, canine; conditions: for Sec61 R66I - Hu IL2(FL) / Sec61 R66I - Hu PD1(ss) / Sec61 R66I - Hu TNFa(FL): replicate columns
# T2 construct: expressed in transfected cells
# T2 sequence (P60468 whole entry, the tested form may be a part): as the sequence (P60468 whole entry, further chain) above
# T2 sequence (P38377 whole entry R66I, the tested form may be a part): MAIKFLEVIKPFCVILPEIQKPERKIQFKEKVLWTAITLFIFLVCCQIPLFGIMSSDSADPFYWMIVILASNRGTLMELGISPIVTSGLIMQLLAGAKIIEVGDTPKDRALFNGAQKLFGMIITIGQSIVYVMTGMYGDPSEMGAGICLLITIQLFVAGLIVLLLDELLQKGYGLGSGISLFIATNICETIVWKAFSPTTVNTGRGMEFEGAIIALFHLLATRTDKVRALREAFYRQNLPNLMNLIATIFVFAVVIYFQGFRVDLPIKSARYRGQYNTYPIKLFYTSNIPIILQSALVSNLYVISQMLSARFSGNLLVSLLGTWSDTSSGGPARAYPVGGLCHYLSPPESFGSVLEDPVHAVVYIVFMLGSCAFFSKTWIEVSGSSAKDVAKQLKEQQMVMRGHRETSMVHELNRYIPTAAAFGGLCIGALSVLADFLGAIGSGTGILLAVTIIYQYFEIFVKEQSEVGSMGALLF
# T2 sequence (P60059 whole entry, further chain, the tested form may be a part): as the sequence (P60059 whole entry, further chain) above
smiles,measurement,setting,value
CC(C)CC1NC(=O)C(Cc2cn(Cc3ccc(Br)cc3)c3ccccc23)N(C)C(=O)C(CC(F)(F)F)NC(=O)C(CC(C)C)N(C)C(=O)C(CC(F)(F)F)NC(=O)C(CCC#N)OC(=O)C(C)N(C)C1=O (stereo not shown) [KZR-8445] (cyclo([X1]L[NMeA][X2][ξAla(CF3)][NMeL][ξAla(CF3)]); configuration not given here),IC50,[1]; IL17F SP-GLuc,228 nM
same,IC50,[1]; IL17RA SP-GLuc,408 nM
same,IC50,[1]; IL23A SP-GLuc,425 nM
same,IC50,[1]; IL23R SP-GLuc,366 nM
same,IC50,[1]; ITGA3 SP-GLuc,18300 nM
same,IC50,[1]; ITGB1 SP-GLuc,> 25000 nM
same,IC50,[1]; ITGB3 SP-GLuc,106 nM
same,IC50,[1]; ITGB5 SP-GLuc,89.1 nM
same,IC50,[1]; ITGB7 SP-GLuc,228 nM
same,IC50,[1]; JTB SP-GLuc,25.5 nM
same,IC50,[1]; KRTDAP SP-GLuc,570 nM
same,IC50,[1]; LCN6 SP-GLuc,101 nM
same,IC50,[1]; LDLR SP-GLuc,800 nM
same,IC50,[1]; LILRB2 SP-GLuc,1730 nM
same,IC50,[1]; LRP8 SP-GLuc,681 nM
same,IC50,[1]; LRRC32 SP-GLuc,> 25000 nM
same,IC50,[1]; MASP2 SP-GLuc,127 nM
same,IC50,[1]; METTL7a SP-GLuc,6900 nM
same,IC50,[1]; NGF SP-GLuc,347 nM
same,IC50,[1]; P3H1 SP-GLuc,72.7 nM
same,IC50,[1]; PCDHA4 SP-GLuc,489 nM
same,IC50,[1]; PCSK9 SP-GLuc,1280 nM
same,IC50,[1]; PDCD1 SP-GLuc,37 nM
same,IC50,[1]; PRKCSH SP-GLuc,186 nM
same,IC50,[1]; PSG8 SP-GLuc,292 nM
same,IC50,[1]; SIRPA SP-GLuc,2030 nM
same,IC50,[1]; SSR2 SP-GLuc,137 nM
same,IC50,[1]; STAB1 SP-GLuc,670 nM
same,IC50,[1]; SUCO SP-GLuc,1450 nM
same,IC50,[1]; TGFB1 SP-GLuc,2210 nM
same,IC50,[1]; TGFB2 SP-GLuc,187 nM
same,IC50,[1]; TGFB3 SP-GLuc,> 25000 nM
same,IC50,[1]; TGFBR1 SP-GLuc,134 nM
same,IC50,[1]; TIGIT SP-GLuc,590 nM
same,IC50,[1]; TMED10 SP-GLuc,462 nM
same,IC50,[1]; UCN SP-GLuc,5900 nM
same,Sec61 R66I - Hu IL2(FL),[2]; 0.32 nM,116 (2×) and 120
same,Sec61 R66I - Hu PD1(ss),[2]; 0.32 nM,105 and 121 and 112
same,Sec61 R66I - Hu TNFa(FL),[2]; 0.32 nM,121 and 138 and 116
same,Sec61 R66I - Hu IL2(FL),[2]; 1.6 nM,105 and 113 and 110
same,Sec61 R66I - Hu PD1(ss),[2]; 1.6 nM,120 and 103 and 107
same,Sec61 R66I - Hu TNFa(FL),[2]; 1.6 nM,85 and 126 and 152
same,Sec61 R66I - Hu IL2(FL),[2]; 8 nM,113 and 98 and 120
same,Sec61 R66I - Hu PD1(ss),[2]; 8 nM,115 and 104 and 125
same,Sec61 R66I - Hu TNFa(FL),[2]; 8 nM,118 and 113 and 150
same,Sec61 R66I - Hu IL2(FL),[2]; 40 nM,101 and 106 and 117
same,Sec61 R66I - Hu PD1(ss),[2]; 40 nM,115 and 120 and 121
same,Sec61 R66I - Hu TNFa(FL),[2]; 40 nM,103 and 123 and 141
same,Sec61 R66I - Hu IL2(FL),[2]; 200 nM,106 and 96 and 94
same,Sec61 R66I - Hu PD1(ss),[2]; 200 nM,88 and 107 and 86
same,Sec61 R66I - Hu TNFa(FL),[2]; 200 nM,88 and 105 and 111
same,Sec61 R66I - Hu IL2(FL),[2]; 1000 nM,79 and 90 and 87
same,Sec61 R66I - Hu PD1(ss),[2]; 1000 nM,68 and 64 and 75
same,Sec61 R66I - Hu TNFa(FL),[2]; 1000 nM,82 (2×) and 71
same,Sec61 R66I - Hu IL2(FL),[2]; 5000 nM,83 and 76 and 88
same,Sec61 R66I - Hu PD1(ss),[2]; 5000 nM,52 and 49 (2×)
same,Sec61 R66I - Hu TNFa(FL),[2]; 5000 nM,73 and 85 and 77
same,Sec61 R66I - Hu IL2(FL),[2]; 25000 nM,89 and 88 and 72
same,Sec61 R66I - Hu PD1(ss),[2]; 25000 nM,48 (2×) and 40
same,Sec61 R66I - Hu TNFa(FL),[2]; 25000 nM,70 and 78 and 77
same,block of secretion of both GLuc reporter constructs in R66I cells,"[2]; IL-2 and TNFα GLuc, versus WT Sec61α",reduced
